# Experimental data published in patent US10670605B2, “Cysteine reactive probes and uses thereof” (The Scripps Research Institute, priority 2015, dated 2020).
# Experiments:
# Assay in all cases: Competitive isoTOP-ABPP in situ (fragment-treated cells)
# Format in all cases: cell-based
# [1] = target: T1, cysteines in MDA-MB-231 and Ramos cells (Homo sapiens, UniProt Q96T76); conditions: 200 μM, insitu
# T1 sequence (Q96T76 1-1030): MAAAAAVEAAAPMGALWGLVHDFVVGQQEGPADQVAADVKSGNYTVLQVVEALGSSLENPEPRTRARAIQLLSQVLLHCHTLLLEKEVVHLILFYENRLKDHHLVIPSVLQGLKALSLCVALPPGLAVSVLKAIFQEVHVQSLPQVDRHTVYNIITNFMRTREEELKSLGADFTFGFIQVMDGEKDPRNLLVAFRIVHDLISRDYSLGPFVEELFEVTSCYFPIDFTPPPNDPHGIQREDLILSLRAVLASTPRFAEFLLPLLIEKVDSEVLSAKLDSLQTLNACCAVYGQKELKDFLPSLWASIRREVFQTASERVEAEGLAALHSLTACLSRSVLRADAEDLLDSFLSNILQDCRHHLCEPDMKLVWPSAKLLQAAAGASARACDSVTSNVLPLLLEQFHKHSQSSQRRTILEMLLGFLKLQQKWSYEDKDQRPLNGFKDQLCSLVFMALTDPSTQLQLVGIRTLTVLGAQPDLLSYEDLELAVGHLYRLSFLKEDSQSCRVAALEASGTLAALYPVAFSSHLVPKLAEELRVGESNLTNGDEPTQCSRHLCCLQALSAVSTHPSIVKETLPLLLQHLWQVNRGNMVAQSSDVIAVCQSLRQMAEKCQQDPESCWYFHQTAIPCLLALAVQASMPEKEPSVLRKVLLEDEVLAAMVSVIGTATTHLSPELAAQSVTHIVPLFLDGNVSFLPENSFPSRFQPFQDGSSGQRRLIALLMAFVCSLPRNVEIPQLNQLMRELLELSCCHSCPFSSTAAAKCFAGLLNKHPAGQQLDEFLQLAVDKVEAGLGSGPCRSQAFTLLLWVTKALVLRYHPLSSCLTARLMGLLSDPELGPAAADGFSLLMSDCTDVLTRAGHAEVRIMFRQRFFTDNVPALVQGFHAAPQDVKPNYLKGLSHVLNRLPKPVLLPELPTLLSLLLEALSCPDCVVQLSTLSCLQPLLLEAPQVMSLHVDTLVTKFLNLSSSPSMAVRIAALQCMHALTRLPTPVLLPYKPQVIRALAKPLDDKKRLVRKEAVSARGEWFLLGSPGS
# [2] = target: cysteines in MDA-MB-231 and Ramos cells (Homo sapiens, UniProt Q93009); conditions: 200 μM, insitu
# [3] = target: T2, cysteines in MDA-MB-231 and Ramos cells (Homo sapiens, UniProt P04183); conditions: 200 μM, insitu
# T2 sequence (P04183 1-234): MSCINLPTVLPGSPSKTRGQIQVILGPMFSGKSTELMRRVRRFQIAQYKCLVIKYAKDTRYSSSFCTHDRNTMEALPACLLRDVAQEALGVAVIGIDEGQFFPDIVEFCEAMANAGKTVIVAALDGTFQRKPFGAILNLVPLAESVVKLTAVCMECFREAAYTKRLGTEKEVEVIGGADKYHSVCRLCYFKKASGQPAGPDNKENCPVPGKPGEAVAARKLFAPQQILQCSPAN
# [4] = target: cysteines in MDA-MB-231 and Ramos cells (Homo sapiens, UniProt Q15365); conditions: 200 μM, insitu
# [5] = target: T3, cysteines in MDA-MB-231 and Ramos cells (Homo sapiens, UniProt Q9UMS0); conditions: 200 μM, insitu
# T3 sequence (Q9UMS0 10-254): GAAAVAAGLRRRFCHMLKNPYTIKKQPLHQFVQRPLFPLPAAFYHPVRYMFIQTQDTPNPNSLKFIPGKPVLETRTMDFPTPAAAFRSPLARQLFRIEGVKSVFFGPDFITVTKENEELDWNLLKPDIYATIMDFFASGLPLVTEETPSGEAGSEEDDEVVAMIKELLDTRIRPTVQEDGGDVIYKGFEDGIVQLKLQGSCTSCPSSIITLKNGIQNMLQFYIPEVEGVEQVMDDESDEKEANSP
# [6] = target: T4, cysteines in MDA-MB-231 and Ramos cells (Homo sapiens, UniProt Q15084); conditions: 200 μM, insitu
# T4 sequence (Q15084 20-440): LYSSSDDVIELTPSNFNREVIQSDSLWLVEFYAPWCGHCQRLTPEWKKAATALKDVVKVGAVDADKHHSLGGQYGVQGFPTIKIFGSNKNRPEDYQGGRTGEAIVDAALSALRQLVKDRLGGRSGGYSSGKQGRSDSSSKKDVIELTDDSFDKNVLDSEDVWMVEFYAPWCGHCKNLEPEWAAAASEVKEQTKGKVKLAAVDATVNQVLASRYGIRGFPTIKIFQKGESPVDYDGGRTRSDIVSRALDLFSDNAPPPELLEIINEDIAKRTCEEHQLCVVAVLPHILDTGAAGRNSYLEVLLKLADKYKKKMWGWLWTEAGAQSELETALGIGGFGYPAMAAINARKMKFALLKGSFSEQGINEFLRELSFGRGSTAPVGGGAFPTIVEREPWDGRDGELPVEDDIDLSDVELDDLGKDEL
# [7] = target: cysteines in MDA-MB-231 and Ramos cells (Homo sapiens, UniProt Q16831); conditions: 200 μM, insitu, 231
# [8] = target: cysteines in MDA-MB-231 and Ramos cells (Homo sapiens, UniProt Q9BXW7); conditions: 200 μM, insitu
# [9] = target: T5, cysteines in MDA-MB-231 and Ramos cells (Homo sapiens, UniProt Q9BVC5); conditions: 200 μM, insitu
# T5 sequence (Q9BVC5 1-232): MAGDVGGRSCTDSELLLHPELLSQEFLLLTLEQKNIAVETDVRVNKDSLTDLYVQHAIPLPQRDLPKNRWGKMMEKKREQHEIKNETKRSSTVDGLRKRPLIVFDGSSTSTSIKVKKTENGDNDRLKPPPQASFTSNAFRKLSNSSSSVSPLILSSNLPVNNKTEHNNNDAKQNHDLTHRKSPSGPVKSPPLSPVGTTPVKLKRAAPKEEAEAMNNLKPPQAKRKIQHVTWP
# [10] = target: T6, cysteines in MDA-MB-231 and Ramos cells (Homo sapiens, UniProt Q99757); conditions: 200 μM, insitu
# T6 sequence (Q99757 60-166): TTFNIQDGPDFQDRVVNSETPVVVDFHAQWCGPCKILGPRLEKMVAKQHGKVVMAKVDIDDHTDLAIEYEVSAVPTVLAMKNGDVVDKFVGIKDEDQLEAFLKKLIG
# Chain of cysteines in MDA-MB-231 and Ramos cells (Homo sapiens, UniProt Q9BXW7) (Q9BXW7 24-423): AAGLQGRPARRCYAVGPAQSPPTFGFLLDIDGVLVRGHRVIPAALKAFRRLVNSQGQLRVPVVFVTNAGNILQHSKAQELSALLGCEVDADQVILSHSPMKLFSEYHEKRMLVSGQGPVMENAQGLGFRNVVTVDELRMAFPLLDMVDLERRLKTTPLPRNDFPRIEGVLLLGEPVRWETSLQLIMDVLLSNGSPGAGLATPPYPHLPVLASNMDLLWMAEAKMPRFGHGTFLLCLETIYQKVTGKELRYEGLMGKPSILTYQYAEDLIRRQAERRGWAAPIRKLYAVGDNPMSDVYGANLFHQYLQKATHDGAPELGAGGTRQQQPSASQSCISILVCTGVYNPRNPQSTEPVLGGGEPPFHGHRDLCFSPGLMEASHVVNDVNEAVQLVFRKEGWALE
# Chain of cysteines in MDA-MB-231 and Ramos cells (Homo sapiens, UniProt Q93009) (Q93009 whole entry): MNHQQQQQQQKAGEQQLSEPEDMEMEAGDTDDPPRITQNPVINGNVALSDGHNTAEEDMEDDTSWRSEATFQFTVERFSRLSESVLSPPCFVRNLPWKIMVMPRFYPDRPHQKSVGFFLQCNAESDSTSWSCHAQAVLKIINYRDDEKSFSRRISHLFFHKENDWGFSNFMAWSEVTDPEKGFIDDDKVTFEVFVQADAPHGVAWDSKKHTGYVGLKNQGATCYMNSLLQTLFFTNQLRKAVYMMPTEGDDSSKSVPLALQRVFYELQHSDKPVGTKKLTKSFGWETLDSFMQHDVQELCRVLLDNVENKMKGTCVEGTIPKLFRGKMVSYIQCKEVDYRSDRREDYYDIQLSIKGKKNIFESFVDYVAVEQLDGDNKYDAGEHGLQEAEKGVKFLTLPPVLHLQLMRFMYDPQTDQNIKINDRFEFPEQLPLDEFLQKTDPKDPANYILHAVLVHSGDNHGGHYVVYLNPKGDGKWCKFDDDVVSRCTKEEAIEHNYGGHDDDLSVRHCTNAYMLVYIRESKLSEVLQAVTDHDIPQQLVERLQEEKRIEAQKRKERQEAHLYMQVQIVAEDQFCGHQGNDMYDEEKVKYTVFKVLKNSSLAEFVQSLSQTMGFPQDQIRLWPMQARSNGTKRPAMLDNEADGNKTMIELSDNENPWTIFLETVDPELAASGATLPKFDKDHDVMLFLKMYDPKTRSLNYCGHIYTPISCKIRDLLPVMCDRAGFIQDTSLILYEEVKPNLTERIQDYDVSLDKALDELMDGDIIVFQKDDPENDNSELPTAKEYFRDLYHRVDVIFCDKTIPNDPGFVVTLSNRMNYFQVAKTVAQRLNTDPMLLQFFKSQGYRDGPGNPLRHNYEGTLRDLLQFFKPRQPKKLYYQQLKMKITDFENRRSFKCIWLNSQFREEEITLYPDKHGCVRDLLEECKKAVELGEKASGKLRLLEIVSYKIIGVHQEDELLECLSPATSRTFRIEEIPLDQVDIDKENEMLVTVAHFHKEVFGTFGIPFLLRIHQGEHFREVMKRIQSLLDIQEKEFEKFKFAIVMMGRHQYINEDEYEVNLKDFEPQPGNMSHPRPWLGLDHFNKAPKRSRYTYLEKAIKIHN
# Chain of cysteines in MDA-MB-231 and Ramos cells (Homo sapiens, UniProt Q16831) (Q16831 whole entry): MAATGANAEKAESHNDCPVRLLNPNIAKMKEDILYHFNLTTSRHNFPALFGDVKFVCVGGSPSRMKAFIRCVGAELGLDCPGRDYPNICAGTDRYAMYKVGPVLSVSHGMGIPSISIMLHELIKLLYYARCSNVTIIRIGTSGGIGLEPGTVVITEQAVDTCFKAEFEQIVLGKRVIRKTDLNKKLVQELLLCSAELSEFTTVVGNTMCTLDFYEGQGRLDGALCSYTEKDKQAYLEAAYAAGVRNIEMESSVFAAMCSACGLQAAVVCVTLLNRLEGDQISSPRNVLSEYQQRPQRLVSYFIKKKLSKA
# Chain of cysteines in MDA-MB-231 and Ramos cells (Homo sapiens, UniProt Q15365) (Q15365 whole entry): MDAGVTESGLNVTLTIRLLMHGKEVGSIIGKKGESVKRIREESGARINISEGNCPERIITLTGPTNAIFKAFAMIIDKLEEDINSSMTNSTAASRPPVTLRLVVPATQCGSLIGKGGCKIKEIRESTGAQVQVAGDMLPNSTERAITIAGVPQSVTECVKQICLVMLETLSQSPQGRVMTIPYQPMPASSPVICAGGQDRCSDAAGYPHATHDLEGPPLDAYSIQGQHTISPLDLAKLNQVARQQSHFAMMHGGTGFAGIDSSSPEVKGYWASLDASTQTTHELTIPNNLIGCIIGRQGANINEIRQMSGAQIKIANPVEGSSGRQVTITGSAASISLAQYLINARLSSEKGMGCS
SMILES,isoTOP-ABPP ratio Q96T76_C848 [1]; 231,isoTOP-ABPP ratio Q96T76_C848 ([1]; ramos),isoTOP-ABPP ratio Q93009_C223 ([2]; ramos),isoTOP-ABPP ratio P04183_C230 [3]; 231,isoTOP-ABPP ratio Q15365_C194 [4]; 231,isoTOP-ABPP ratio Q15365_C194 ([4]; ramos),isoTOP-ABPP ratio Q9UMS0_C213 [5]; 231,isoTOP-ABPP ratio Q15084_C55 ([6]; ramos),isoTOP-ABPP ratio Q16831_C162 [7],isoTOP-ABPP ratio Q9BXW7_C392 [8]; 231,isoTOP-ABPP ratio Q9BVC5_C10 [9]; 231,isoTOP-ABPP ratio Q99757_C90 [10]; 231,isoTOP-ABPP ratio Q93009_C223 [2]; 231,isoTOP-ABPP ratio Q15084_C55 [6]; 231,isoTOP-ABPP ratio P04183_C230 ([3]; ramos),isoTOP-ABPP ratio Q96T76_C819 [1]; 231,isoTOP-ABPP ratio P04183_C66 [3]; 231,"isoTOP-ABPP ratio, Q15084_C190 [6]; 231",further results
O=C(CCl)NCCc1c[nH]c2ccccc12 [compound 13],0.6,1.5,1.3,0.7,0.9,1.4,1.6,1.5,1.0,2.0,1.6,–,–,–,–,–,–,–,"isoTOP-ABPP ratio, cysteine P04183_C66 [3]; 231: 1.0"
O=C(CCl)NC12CC3CC(CC(C3)C1)C2 [compound 21],0.7,–,–,0.7,1.1,–,–,–,1.6,1.6,1.5,4.3,1.8,0.9,–,–,–,–,–
COc1ccccc1OCCNC(=O)CCl [compound 28],0.8,–,–,–,–,–,–,–,0.7,1.0,0.9,–,1.0,1.4,–,–,–,–,–
O=C(CCl)N1CCN(CC(=O)N2CCOCC2)CC1 [compound 29],–,1.0,1.0,–,–,1.0,–,1.0,–,–,–,–,–,–,1.2,–,–,–,"isoTOP-ABPP ratio Q99757_C90 ([10]; ramos): 1.6; isoTOP-ABPP ratio P04183_C66 ([3]; ramos): 1.6; isoTOP-ABPP ratio Q9UMS0_C213 ([5]; ramos): 2.0; isoTOP-ABPP ratio, Q15084_C190 ([6]; ramos): 1.0; isoTOP-ABPP ratio Q9BXW7_C392 ([8]; ramos): 1.5; isoTOP-ABPP ratio Q9BVC5_C10 ([9]; ramos): 1.8"
C=CC(=O)N(Cc1cccnc1)c1cc(C(F)(F)F)cc(C(F)(F)F)c1 [compound 31],20.0,–,–,–,0.7,1.6,1.5,–,–,–,–,1.4,–,0.7,2.1,20.0,0.7,1.0,isoTOP-ABPP ratio Q96T76_C819 ([1]; ramos): 20.0
Cc1ccc(C=C(C#N)C(=O)NCCN2CCOCC2)cc1 [compound 41],0.7,–,–,0.6,0.3,–,0.9,–,0.8,1.0,1.0,0.5,–,0.9,–,0.6,0.4,0.9,–
